In US10934303B2, “Aryl ethene derivative and pharmaceutical composition containing same as active ingredient” (priority 2016, dated 2021):
Like-named read-outs stand apart in the source and are kept apart here.

Key:
[1] = biological target: GST-bound ERR gamma ligand-binding domain (LBD) (Homo sapiens (Human), UniProt P62508); test: ERRγ binding assay (inverse agonist assay), TR-FRET
Protocol: 1) ERRγ Binding Assay (Inverse Agonist Assay)
(§2) The arylethene derivative of the present invention was sequentially added to a 384 well plate from a concentration of 10 μM to a final concentration of two-fold dilution. […] After all reagents were added, a reaction was carried out with gentle shaking at 20° C. for 1 hour, and after the reaction, a binding activity was measured by a TR-FRET method.

[2] = biological target: GST-bound ERR alpha LBD (Homo sapiens (Human), UniProt P11474); conditions: TR-FRET, PGC1a coactivator; read-out: Binding Assay, IC50 ERRα
Protocol: as §2

[3] = biological target: GST-bound ER alpha ligand-binding domain (LBD) (Homo sapiens (Human), UniProt P03372); test: biochemical; conditions: TR-FRET, beta-estradiol 4 nM as agonist; read-out: Binding Assay, IC50 ERα
Protocol: as §2

[4] = system: ERRγ; type: cell-based
[5] = biological target: CYP1A2 (Homo sapiens (Human), UniProt P05177); test: Cytochrome P450 activity inhibition, CYP1A2; type: in vitro ADME; conditions: 10 μM, human liver microsomes, Phenacetin substrate
Excerpt: (§1) 1) Cytochrome P450 (CYP450) Activity Inhibition Evaluation

[6] = biological target: CYP2C9 (Homo sapiens (Human), UniProt P11712); test: Cytochrome P450 activity inhibition, CYP2C9; type: in vitro ADME; conditions: 10 μM, human liver microsomes, Diclofenac substrate
Excerpt: as §1

[7] = biological target: CYP2C19 (Homo sapiens (Human), UniProt P33261); test: Cytochrome P450 activity inhibition, CYP2C19; type: in vitro ADME; conditions: 10 μM, human liver microsomes, S-mephenytoin substrate
Excerpt: as §1

[8] = biological target: CYP2D6 (Homo sapiens (Human), UniProt P10635); test: Cytochrome P450 activity inhibition, CYP2D6; type: in vitro ADME; conditions: 10 μM, human liver microsomes, Dextromethorphan substrate
Excerpt: as §1

[9] = biological target: CYP3A4 (Homo sapiens (Human), UniProt P08684); test: Cytochrome P450 activity inhibition, CYP3A4; type: in vitro ADME; conditions: 10 μM, human liver microsomes, Midazolam substrate
Excerpt: as §1

[10] = in vitro; type: in vitro ADME; parameters: Papp at 5 h: dose or concentration left out as unconfirmed; conditions: PBS pH 7.4, 25° C.; for Permeability Pampa: 5 hours
Protocol: 3) Parallel Artificial Membrane Permeability Assay (PAMPA) Evaluation
PAMPA is a method which has been developed for testing cell membrane permeability of a material in a test tube, and has been performed using a lipid tri-layer PVDF membrane available from Corning Gentest (NY, US), the used reagents were all purchased from Sigma (MO, US). First, a test material is diluted in PBS (pH 7.4) to a final concentration of 10 mM, 300 mL of the solution is added to the bottom well of a 96-transwell equipped with a PVDF membrane, and 200 mL of PBS is added to the upper well. Then, a plate is reacted at 25° C. for 5 hours, 20 mL of the solution in each well is transferred to a new container, and 80 mL of acetonitrile containing an internal standard material (4 mM chloropropamide) is added thereto. A concentration of the material in the solution is analyzed using LC-MS/MS (ThermoFisher Scientific, MO, US), and the transmittance of the material is calculated according to the equation reported in the reference document.

[11] = 1 μM, 30 minutes, 37° C., NADPH
Protocol: 2) Microsomal Stability Evaluation
(§3) Four liver microsomes (Human, Dog, Rat, Mouse 0.5 mg/ml) with a 0.1 M phosphate buffer solution (pH 7.4), and the arylethene derivative of the present invention were added to a concentration of 1 μM, culturing was performed at 37° C. for 5 minutes in advance, a NADPH regeneration system solution was added thereto, and culturing was performed at 37° C. for 30 minutes. Thereafter, in order to complete the reaction, an acetonitrile solution containing an internal standard material (chlorpropamide) was added thereto, centrifugation (14,000 rpm, 4° C.) was performed for 5 minutes, and a supernatant was injected into a LC-MS/MS system to analyze the substrate drug, thereby evaluating metabolism stability to the arylethene derivative of the present invention.

[12] = 1 μM, 30 minutes, 37° C., NADPH; remark: listed apart in the source
Protocol: 2) Microsomal Stability Evaluation
as §3

[13] = biological target: hERG channel (Homo sapiens (Human), UniProt Q12809); conditions: read-out: hERG IC50; fluorescence polarization assay
[14] = 1 μM, 30 minutes, 37° C., NADPH; remark: listed apart in the source
Protocol: 2) Microsomal Stability Evaluation
as §3

[15] = 1 μM, 30 minutes, 37° C., NADPH; remark: listed apart in the source
Protocol: 2) Microsomal Stability Evaluation
as §3

[16] = in vivo; type: in vivo; conditions: rat
Protocol: An oral administration group fasts the day before.
Blood of each animal is collected at 0 hour.
Into a tail vein of an intravenous administration group (IV), a drug is injected at a dose of 1 mg/kg (syringe).
To an oral administration group (PO), a drug is orally administered at a dose of 10 mg/kg (oral zondec)
After administration, blood of the intravenous administration group was collected through a jugular vein 8 times at 0.08, 0.25, 0.5, 1, 2, 4, 6, and 8 hours. One collected blood amount is 400 to 500 ul.
After administration, blood of the oral administration group was collected through a jugular vein 6 times at 0.25, 0.5, 1, 4, 6 and 8 hours. One collected blood amount is 400 to 500 ul.
Supernatant plasma is collected by a centrifuge.
The supernatant plasma was injected into a LC-MS/MS system and the drug is analyzed.

[17] = TR-FRET, PGC1a coactivator, read-out: Binding Assay, IC50 ERRγ
[18] = activity relative to reference compound GSK5182, 10 μM

CYP3A4, sequence (P08684 whole entry): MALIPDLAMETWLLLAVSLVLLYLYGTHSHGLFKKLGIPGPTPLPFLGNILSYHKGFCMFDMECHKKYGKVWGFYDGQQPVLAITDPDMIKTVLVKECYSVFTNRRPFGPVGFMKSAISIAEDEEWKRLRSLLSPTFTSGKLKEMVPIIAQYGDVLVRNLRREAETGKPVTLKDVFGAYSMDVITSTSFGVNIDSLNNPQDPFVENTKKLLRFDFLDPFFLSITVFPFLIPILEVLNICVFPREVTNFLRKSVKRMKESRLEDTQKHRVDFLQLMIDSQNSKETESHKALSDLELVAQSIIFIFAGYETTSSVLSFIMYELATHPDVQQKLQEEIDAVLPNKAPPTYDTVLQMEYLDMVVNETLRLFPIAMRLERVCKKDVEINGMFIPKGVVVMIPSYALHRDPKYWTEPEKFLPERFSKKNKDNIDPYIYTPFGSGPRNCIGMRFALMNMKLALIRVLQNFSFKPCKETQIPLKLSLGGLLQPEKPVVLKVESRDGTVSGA
CYP1A2, sequence (P05177 whole entry): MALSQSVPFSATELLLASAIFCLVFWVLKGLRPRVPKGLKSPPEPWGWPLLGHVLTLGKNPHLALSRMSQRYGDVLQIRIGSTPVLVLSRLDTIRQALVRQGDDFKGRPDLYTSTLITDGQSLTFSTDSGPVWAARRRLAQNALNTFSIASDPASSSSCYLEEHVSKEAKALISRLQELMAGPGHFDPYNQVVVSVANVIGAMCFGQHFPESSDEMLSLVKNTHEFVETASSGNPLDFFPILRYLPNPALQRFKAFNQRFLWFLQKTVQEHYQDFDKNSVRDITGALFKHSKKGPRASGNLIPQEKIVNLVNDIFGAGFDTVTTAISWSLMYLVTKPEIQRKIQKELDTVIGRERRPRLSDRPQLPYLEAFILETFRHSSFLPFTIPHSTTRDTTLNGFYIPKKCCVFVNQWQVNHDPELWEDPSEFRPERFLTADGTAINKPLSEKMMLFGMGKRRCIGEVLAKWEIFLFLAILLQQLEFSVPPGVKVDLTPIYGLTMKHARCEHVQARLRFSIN
CYP2C19, sequence (P33261 whole entry): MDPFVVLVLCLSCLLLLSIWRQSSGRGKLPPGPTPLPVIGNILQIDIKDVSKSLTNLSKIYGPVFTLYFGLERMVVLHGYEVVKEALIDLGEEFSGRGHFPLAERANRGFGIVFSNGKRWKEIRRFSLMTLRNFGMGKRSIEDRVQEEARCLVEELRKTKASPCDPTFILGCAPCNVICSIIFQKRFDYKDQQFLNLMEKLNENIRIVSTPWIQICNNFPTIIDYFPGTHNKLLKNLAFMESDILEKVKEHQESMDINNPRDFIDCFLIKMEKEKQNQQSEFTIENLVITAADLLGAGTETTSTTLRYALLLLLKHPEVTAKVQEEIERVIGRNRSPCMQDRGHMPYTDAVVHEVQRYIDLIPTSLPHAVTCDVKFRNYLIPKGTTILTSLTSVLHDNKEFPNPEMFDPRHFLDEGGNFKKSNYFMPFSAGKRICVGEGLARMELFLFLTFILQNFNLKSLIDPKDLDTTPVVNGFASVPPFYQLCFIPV
CYP2D6, sequence (P10635 whole entry): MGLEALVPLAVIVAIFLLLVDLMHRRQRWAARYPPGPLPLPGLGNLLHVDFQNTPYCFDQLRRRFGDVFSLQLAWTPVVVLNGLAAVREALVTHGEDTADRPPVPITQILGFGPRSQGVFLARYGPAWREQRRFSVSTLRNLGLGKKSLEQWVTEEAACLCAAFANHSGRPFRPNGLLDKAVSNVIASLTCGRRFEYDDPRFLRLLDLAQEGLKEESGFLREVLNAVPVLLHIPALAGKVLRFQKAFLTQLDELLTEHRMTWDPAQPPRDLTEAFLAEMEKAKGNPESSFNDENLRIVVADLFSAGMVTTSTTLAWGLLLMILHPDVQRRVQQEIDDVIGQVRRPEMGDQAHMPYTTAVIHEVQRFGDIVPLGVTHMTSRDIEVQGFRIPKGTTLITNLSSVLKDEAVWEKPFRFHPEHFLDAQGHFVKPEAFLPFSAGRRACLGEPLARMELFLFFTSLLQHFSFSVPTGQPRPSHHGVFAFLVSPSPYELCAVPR
GST-bound ERR gamma ligand-binding domain (LBD), sequence (P62508 233-457): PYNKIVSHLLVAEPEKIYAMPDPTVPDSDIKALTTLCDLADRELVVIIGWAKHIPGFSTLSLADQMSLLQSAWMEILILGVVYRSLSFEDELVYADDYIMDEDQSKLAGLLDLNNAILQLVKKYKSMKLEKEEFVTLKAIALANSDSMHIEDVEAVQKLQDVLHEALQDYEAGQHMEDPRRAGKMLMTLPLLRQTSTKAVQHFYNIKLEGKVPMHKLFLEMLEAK
CYP2C9, sequence (P11712 whole entry): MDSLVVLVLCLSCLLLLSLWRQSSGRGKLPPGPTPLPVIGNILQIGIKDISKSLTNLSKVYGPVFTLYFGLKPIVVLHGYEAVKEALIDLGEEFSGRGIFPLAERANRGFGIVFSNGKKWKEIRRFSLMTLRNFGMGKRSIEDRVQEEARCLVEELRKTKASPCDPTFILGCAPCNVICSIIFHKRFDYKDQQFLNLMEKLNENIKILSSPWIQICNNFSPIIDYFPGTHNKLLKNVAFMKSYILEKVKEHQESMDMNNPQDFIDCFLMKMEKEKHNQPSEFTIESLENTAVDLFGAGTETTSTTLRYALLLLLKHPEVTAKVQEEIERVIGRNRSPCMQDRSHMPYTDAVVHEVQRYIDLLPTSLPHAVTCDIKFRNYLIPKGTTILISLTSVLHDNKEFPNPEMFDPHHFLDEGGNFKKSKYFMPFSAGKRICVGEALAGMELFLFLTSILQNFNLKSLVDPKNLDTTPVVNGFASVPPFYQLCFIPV
GST-bound ERR alpha LBD, sequence (P11474 193-421): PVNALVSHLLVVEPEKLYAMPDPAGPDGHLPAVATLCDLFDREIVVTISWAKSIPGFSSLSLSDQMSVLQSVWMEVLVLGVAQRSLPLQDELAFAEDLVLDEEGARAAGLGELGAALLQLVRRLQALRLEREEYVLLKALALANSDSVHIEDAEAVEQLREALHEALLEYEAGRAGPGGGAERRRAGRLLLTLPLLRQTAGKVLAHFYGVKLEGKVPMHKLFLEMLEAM
GST-bound ER alpha ligand-binding domain (LBD), sequence (P03372 whole entry, looked up, the tested form may be a part): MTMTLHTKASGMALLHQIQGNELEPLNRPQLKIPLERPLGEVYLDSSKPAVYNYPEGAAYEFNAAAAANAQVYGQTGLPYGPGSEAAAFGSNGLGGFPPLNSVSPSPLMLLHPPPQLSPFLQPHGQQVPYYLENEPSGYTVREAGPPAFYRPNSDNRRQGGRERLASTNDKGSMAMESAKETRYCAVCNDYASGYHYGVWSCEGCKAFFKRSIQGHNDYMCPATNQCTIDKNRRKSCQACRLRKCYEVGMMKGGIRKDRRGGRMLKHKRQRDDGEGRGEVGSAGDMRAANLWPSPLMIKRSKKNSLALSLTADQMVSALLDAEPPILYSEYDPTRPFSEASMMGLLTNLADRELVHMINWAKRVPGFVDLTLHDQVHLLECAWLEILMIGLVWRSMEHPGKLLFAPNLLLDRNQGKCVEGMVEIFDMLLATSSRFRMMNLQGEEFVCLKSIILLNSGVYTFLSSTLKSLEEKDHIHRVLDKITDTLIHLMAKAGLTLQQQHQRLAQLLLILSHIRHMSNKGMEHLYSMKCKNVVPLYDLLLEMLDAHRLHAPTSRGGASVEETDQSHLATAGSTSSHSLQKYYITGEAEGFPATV

OCCC/C(=C(\c1ccc(O)cc1)c1ccc(OCCN2CCCC2)cc1)c1ccccc1 [Compound 6e]
IC50 [1, 17]: 0.067 µM | IC50 [2]: > 10 µM | IC50 [3]: 0.408 µM | Functional Assay, Cpds/Ref 5182 [4]: 1.82 | Functional Assay at 10 μM (% of control), Cpds ([4]; 10 μM, 24 hours, AD293): 5.61 % of control

CN1CCN(c2ccc(/C(=C(/CCCO)c3ccccc3)c3ccc([N+](=O)[O-])cc3)cc2)CC1 [Compound 18c]
Functional Assay at 10 μM (% of control), Cpds ([4]; 10 μM, 24 hours, AD293): 1.31 % of control | Functional Assay, Cpds/Ref 5182 [4, 18]: 0.42 | CYP inhibition (% of control) 1A2 [5]: 92.2 % of control | CYP inhibition (% of control) 2C9 [6]: 81.7 % of control | CYP inhibition (% of control) 2C19 [7]: 80 % of control | CYP inhibition (% of control) 2D6 [8]: 75.6 % of control | CYP inhibition (% of control) 3A4 [9]: 64.1 % of control | Permeability Pampa [10]: 5.73 10^−6 cm/s | MS(Microsomal Stability) (%) human [11]: 96.9% | MS(Microsomal Stability) (%) rat [12]: 72.8% | IC50 [13]: 11.6 µM

CC(C)N1CCN(c2ccc(/C(=C(/CCCO)c3ccccc3)c3ccc([N+](=O)[O-])cc3)cc2)CC1 [Compound 18g]
Functional Assay at 10 μM (% of control), Cpds ([4]; 10 μM, 24 hours, AD293): 1.62 % of control | Functional Assay, Cpds/Ref 5182 [4, 18]: 0.84 | Permeability Pampa [10]: 4.8 10^−6 cm/s | MS(Microsomal Stability) (%) human [11]: 87.9% | MS(Microsomal Stability) (%) dog [14]: 84.9% | MS(Microsomal Stability) (%) rat [12]: 85.3% | MS(Microsomal Stability) (%) mouse [15]: 84.1% | IC50 [13]: 17.9 µM

CC(C)N1CCN(c2ccc(/C(=C(/CCCO)c3ccccc3)c3ccc(Br)cc3)cc2)CC1 [Compound 18h]
IC50 [1, 17]: 0.032 µM | IC50 [2]: > 10 µM | IC50 [3]: > 10 µM | Functional Assay at 10 μM (% of control), Cpds ([4]; 10 μM, 24 hours, AD293): 4.47 % of control | Functional Assay, Cpds/Ref 5182 [4, 18]: 1.09 | CYP inhibition (% of control) 1A2 [5]: 93.5 % of control | CYP inhibition (% of control) 2C9 [6]: 96.9 % of control | CYP inhibition (% of control) 2C19 [7]: 86.3 % of control | CYP inhibition (% of control) 2D6 [8]: 71.5 % of control | CYP inhibition (% of control) 3A4 [9]: 64.5 % of control | Permeability Pampa [10]: 0.37 10^−6 cm/s | MS(Microsomal Stability) (%) human [11]: >100% | MS(Microsomal Stability) (%) dog [14]: 64.4% | MS(Microsomal Stability) (%) rat [12]: 74.2% | MS(Microsomal Stability) (%) mouse [15]: 48.5%

CCN1CCN(c2ccc(/C(=C(/CCCO)c3ccccc3)c3ccc(C)cc3)cc2)CC1 [Compound 18j]
IC50 [1, 17]: 0.025 µM | IC50 [2]: > 10 µM | IC50 [3]: > 10 µM | Functional Assay at 10 μM (% of control), Cpds ([4]; 10 μM, 24 hours, AD293): 3.28 % of control | Functional Assay, Cpds/Ref 5182 [4, 18]: 1.21 | CYP inhibition (% of control) 1A2 [5]: >100 % of control | CYP inhibition (% of control) 2C9 [6]: 87 % of control | CYP inhibition (% of control) 2C19 [7]: 74 % of control | CYP inhibition (% of control) 2D6 [8]: 86.6 % of control | CYP inhibition (% of control) 3A4 [9]: 77.6 % of control | Permeability Pampa [10]: 1.61 10^−6 cm/s | AUCINF ([16]; IV, 1 mg/kg): 0.60 μMh | AUCall ([16]; IV, 1 mg/kg): 0.55 μMh | Cl(observed)/F ([16]; IV, 1 mg/kg): 59 mL/min/kg | Vss ([16]; IV, 1 mg/kg): 9.8 L/kg | t1/2 ([16]; IV, 1 mg/kg): 3.2 h | AUCINF ([16]; PO, 10 mg/kg): 1.61 μMh | AUCall ([16]; PO, 10 mg/kg): 1.07 μMh | BA ([16]; PO, 10 mg/kg): 19.6% | Tmax ([16]; PO, 10 mg/kg): 3 h | Cmax ([16]; PO, 10 mg/kg, read-out: Cmax): 210 nM | MS(Microsomal Stability) (%) human [11]: 67.9% | MS(Microsomal Stability) (%) dog [14]: 58.0% | MS(Microsomal Stability) (%) rat [12]: 62.8% | MS(Microsomal Stability) (%) mouse [15]: 54.9%

Cc1ccc(/C(=C(\CCCO)c2ccccc2)c2ccc(C3CNC3)cc2)cc1 [Compound 20d]
Permeability Pampa [10]: 0.23 10^−6 cm/s | MS(Microsomal Stability) (%) human [11]: 83% | MS(Microsomal Stability) (%) rat [12]: 54% | MS(Microsomal Stability) (%) mouse [15]: 11.3% | IC50 [13]: 15 µM

OCCC/C(=C(\c1ccc(O)cc1)c1ccc(C2CN(C3CC3)C2)cc1)c1ccccc1 [Compound 22d]
CYP inhibition (% of control) 1A2 [5]: >100 % of control | CYP inhibition (% of control) 2C9 [6]: >100 % of control | CYP inhibition (% of control) 2C19 [7]: >100 % of control | CYP inhibition (% of control) 2D6 [8]: 82.5 % of control | CYP inhibition (% of control) 3A4 [9]: 66.1 % of control | Permeability Pampa [10]: 0.38 10^−6 cm/s | MS(Microsomal Stability) (%) human [11]: 57.6% | MS(Microsomal Stability) (%) rat [12]: 60.2% | IC50 [13]: 6 µM

OCCC/C(=C(\c1ccc(O)cc1)c1ccc(C2=CCN(C3CC3)CC2)cc1)c1ccccc1 [Compound 22j]
CYP inhibition (% of control) 1A2 [5]: 95.7 % of control | CYP inhibition (% of control) 2C9 [6]: 88 % of control | CYP inhibition (% of control) 2C19 [7]: 89.6 % of control | CYP inhibition (% of control) 2D6 [8]: 97.1 % of control | CYP inhibition (% of control) 3A4 [9]: 85 % of control | MS(Microsomal Stability) (%) human [11]: 65.2% | MS(Microsomal Stability) (%) dog [14]: 54.9% | MS(Microsomal Stability) (%) rat [12]: 65.5% | MS(Microsomal Stability) (%) mouse [15]: 34.9% | IC50 [13]: 8.8 µM

OCCC/C(=C(\c1ccc(O)cc1)c1ccc(N2CCN(C3CCCC3)CC2)cc1)c1ccccc1 [Compound 22n]
Functional Assay at 10 μM (% of control), Cpds ([4]; 10 μM, 24 hours, AD293): 3.47 % of control | Functional Assay, Cpds/Ref 5182 [4, 18]: 1.28 | CYP inhibition (% of control) 1A2 [5]: 99 % of control | CYP inhibition (% of control) 2C9 [6]: 97.4 % of control | CYP inhibition (% of control) 2C19 [7]: 83 % of control | CYP inhibition (% of control) 2D6 [8]: 82.6 % of control | CYP inhibition (% of control) 3A4 [9]: 88.3 % of control | MS(Microsomal Stability) (%) human [11]: 56.3% | MS(Microsomal Stability) (%) dog [14]: 72.0% | MS(Microsomal Stability) (%) rat [12]: 47.8% | MS(Microsomal Stability) (%) mouse [15]: 37.8% | IC50 [13]: 14.6 µM

OCCC/C(=C(\c1ccc(O)cc1)c1ccc(N2CCN(C3CCCCC3)CC2)cc1)c1ccccc1 [Compound 22p]
IC50 [1, 17]: 0.099 µM | IC50 [2]: 9.7 µM | IC50 [3]: 2.12 µM | CYP inhibition (% of control) 1A2 [5]: 88.1 % of control | CYP inhibition (% of control) 2C9 [6]: 81.8 % of control | CYP inhibition (% of control) 2C19 [7]: 61.5 % of control | CYP inhibition (% of control) 2D6 [8]: 79.6 % of control | CYP inhibition (% of control) 3A4 [9]: 90.6 % of control | Permeability Pampa [10]: 0.2 10^−6 cm/s | MS(Microsomal Stability) (%) human [11]: 72.3% | MS(Microsomal Stability) (%) dog [14]: 77.7% | MS(Microsomal Stability) (%) rat [12]: 75.3% | MS(Microsomal Stability) (%) mouse [15]: 40.4%

OCCC/C(=C(\c1ccc(O)cc1)c1ccc(N2CCN(C3CCC3)CC2)cc1)c1ccccc1 [Compound 22q]
IC50 [1, 17]: 0.053 µM | IC50 [2]: > 10 µM | IC50 [3]: 1.66 µM | CYP inhibition (% of control) 1A2 [5]: 99.9 % of control | CYP inhibition (% of control) 2C9 [6]: 77.7 % of control | CYP inhibition (% of control) 2C19 [7]: 92.8 % of control | CYP inhibition (% of control) 2D6 [8]: 77.6 % of control | CYP inhibition (% of control) 3A4 [9]: 81 % of control | Permeability Pampa [10]: 0.77 10^−6 cm/s | MS(Microsomal Stability) (%) human [11]: 63.7% | MS(Microsomal Stability) (%) dog [14]: 43.8% | MS(Microsomal Stability) (%) rat [12]: 67.6% | MS(Microsomal Stability) (%) mouse [15]: 17.6%

CC(C)N1CCN(c2ccc(/C(=C(/CCCO)c3ccccc3)c3ccc(NS(C)(=O)=O)cc3)cc2)CC1 [Compound 27a, (E)-N-(4-(5-hydroxy-1-(4-(4-isopropylpiperazin-1-yl)phenyl)-2-phenylpent-1-en-1-yl)phenyl)methanesulfonamide]
IC50 [1]: 0.026 µM | Functional Assay at 10 μM (% of control), Cpds [4]: 2.1 % of control | Functional Assay, Cpds/Ref 5182 [4]: 0.77 | Papp at 5 h ([10]; PAMPA, read-out: Permeability Pampa): 2.22 ×10⁻⁶ cm/s | MS(Microsomal Stability) (%) human [11]: 66.2% | MS(Microsomal Stability) (%) dog [14]: 50.3% | MS(Microsomal Stability) (%) rat [12]: 65.0% | MS(Microsomal Stability) (%) mouse [15]: 32.7%
